test system: IL-5 production; assay: In vitro inhibition of IL-5 production in human blood (phytohemagglutinin-stimulated whole blood, ELISA); format: cell-based; conditions: test dose 1×10^−6 M, 48 hours;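 further: values marked with an asterisk were tested at 10 µM and unmarked values at 1 µM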
Experimental: In Vitro Inhibition of IL-5 Production in Human Blood
Human Whole Blood Stimulation
Peripheral blood from healthy male donors was drawn into heparinized syringes (12.5 U heparin/ml). Blood samples were three-fold diluted in RMPI 1640 medium (Life Technologies, Belgium) supplemented with 2 mM L-glutamine, 100 U/ml penicillin and 100 μg/ml streptomycin, and 300 μl fractions were distributed in 24-well multidisc plates. Blood samples were preincubated (60 minutes at 37° C.) in a humidified 6% CO2-atmosphere with 100 μl of drug solvent (final concentration 0.02% dimethylsulfoxide in RPMI 1640) or with 100 μl of an appropriate dose of test compound before being stimulated by the addition of 100 μl of phytohemagglutinin HA17 (Murex, UK) at a final concentration of 2 μg/ml. After 48 hours, cell-free supernatant fluids were collected by centrifugation and stored at −70° C. until tested for the presence of IL-5.
IL-5 measurements were conducted as described in Van Wauwe et al. (1996, Inflamm Res, 45, 357-363) on page 358 using ELISA.
Table 9 lists the percentage inhibition of IL-5 production (column “% inh”) at a test dose of 1×10^−6 M, or in case the percentage inhibition is marked with an “*” 1×10^−5 M, the compounds of the present invention.

| Compound | % inh. (percentage inhibition of IL-5 production) |
| --- | --- |
| COCc1sc(C(c2ccc(Cl)cc2)c2c(Cl)cc(-n3ncc(=O)[nH]c3=O)cc2Cl)nc1-c1ccccc1 (racemic) [Comp 278] | 97% |
| Cc1sc(C(c2ccc(Cl)cc2)c2c(Cl)cc(-n3ncc(=O)[nH]c3=O)cc2Cl)nc1-c1cccc(F)c1 (racemic) [Comp 258] | 98% |
| O=c1cnn(-c2ccc(C(c3ccc(Cl)cc3)c3ccccn3)c(Cl)c2)c(=O)[nH]1 (stereo not shown) [Comp 114] | 40% |
| Cc1nc(C(c2ccc(Cl)cc2)c2c(Cl)cc(-n3ncc(=O)[nH]c3=O)cc2Cl)sc1-c1ccccc1 (racemic) [Comp 248] | 91% |
| O.O=c1cnn(-c2cc(Cl)c(C(c3ccc(Cl)cc3)c3nnc(-c4ccncc4)o3)c(Cl)c2)c(=O)[nH]1 (racemic) [Compound 158] | 92% |
| O=c1cnn(-c2cc(Cl)c(C(Sc3nc(-c4ccc(F)cc4F)cs3)c3ccc(Cl)c(C(F)(F)F)c3)c(Cl)c2)c(=O)[nH]1 (stereo not shown) [Compound 397] | 83% |
| O=c1cnn(-c2cc(Cl)c(C(Sc3cscn3)c3ccc(Cl)c(C(F)(F)F)c3)c(Cl)c2)c(=O)[nH]1 (stereo not shown) [Compound 387] | 93% |
| O=c1cnn(-c2cc(Cl)c(C(c3ccc(Cl)cc3)c3nc(-c4ccccc4)c(CO)s3)c(Cl)c2)c(=O)[nH]1 (racemic) [Comp 282] | 93% |
| O=c1cnn(-c2cc(Cl)c(C(c3ccc(Cl)cc3)c3nc(-c4cccs4)cs3)c(Cl)c2)c(=O)[nH]1 (racemic) [Comp 31] | 93% |
| CC(c1ccc(Cl)c(Cl)c1)(c1nc(-c2ccccc2)cs1)c1c(Cl)cc(-n2ncc(=O)[nH]c2=O)cc1Cl (racemic) [Comp 227] | 78% |
| O=c1cnn(-c2ccc(C(Sc3nnc(C(F)(F)F)[nH]3)c3ccc(Cl)cc3)c(Cl)c2)c(=O)[nH]1 (stereo not shown) [Compound 89] | 19% |
| O=c1cnn(-c2cc(Cl)c(C(c3ccc(Cl)cc3)c3nc(-c4ccccc4)c(Cc4ccccc4)s3)c(Cl)c2)c(=O)[nH]1 (racemic) [Comp 249] | 80% |
| O=c1cnn(-c2cc(Cl)c(C(Sc3cnccn3)c3ccc(Cl)c(C(F)(F)F)c3)c(Cl)c2)c(=O)[nH]1 (racemic) [Compound 401] | 92% |
| COC1CCN(Cc2sc(C(c3ccc(Cl)cc3)c3c(Cl)cc(-n4ncc(=O)[nH]c4=O)cc3Cl)nc2-c2ccccc2)CC1.Cl.O (racemic) [Comp 314] | 81% |
| O=c1cnn(-c2cc(Cl)c(C(c3ccc(Cl)cc3)c3nc(-c4cccc(F)c4F)cs3)c(Cl)c2)c(=O)[nH]1 (racemic) [Comp 337] | 96% |
| O=c1cnn(-c2ccc(C(c3ccc(Cl)cc3)c3sc(-c4ccccc4Cl)nc3-c3ccccc3)c(Cl)c2)c(=O)[nH]1 (racemic) [Compound 150] | 48% |
| CN(C)CCNC(=O)Cc1sc(C(c2ccc(Cl)cc2)c2c(Cl)cc(-n3ncc(=O)[nH]c3=O)cc2Cl)nc1-c1ccccc1 (racemic) [Comp 317] | 67% |
| COc1cc(-n2ncc(=O)[nH]c2=O)ccc1C(C)(c1ccc(Cl)c(C(F)(F)F)c1)c1nc(-c2ccccc2)cs1 (racemic) [Comp 255] | 67% |
| O=c1cnn(-c2cc(Cl)c(C(c3ccc(Cl)cc3)c3nc(-c4ccccc4)c(CN4CCOCC4)s3)c(Cl)c2)c(=O)[nH]1 (racemic) [Comp 292] | 94% |
| O=c1cnn(-c2cc(Cl)c(C(c3ccc(Cl)cc3)c3csc(-c4cccc(Cl)c4)n3)c(Cl)c2)c(=O)[nH]1 (racemic) [Compound 371] | 88% |
| O=c1cnn(-c2ccc(C(c3ccc(Cl)cc3)c3nnc(-c4ccccc4)s3)c(Cl)c2)c(=O)[nH]1 (stereo not shown) [Comp 414] | 30% |
| CCOC(=O)c1nnc(C(c2ccc(Cl)cc2)c2c(Cl)cc(-n3ncc(=O)[nH]c3=O)cc2Cl)o1 (racemic) [Compound 186] | 8% |

| Compound | % inh. (percentage inhibition of IL-5 production) |
| --- | --- |
| Cn1ccnc1SC(c1ccc(Cl)cc1)c1ccc(-n2ncc(=O)[nH]c2=O)cc1Cl (racemic) [Compound 58] | 5% |
| O=c1cnn(-c2cc(Cl)c(C(c3ccc(Cl)c(C(F)(F)F)c3)c3nnc(-c4ccccc4)o3)c(Cl)c2)c(=O)[nH]1 (racemic) [Compound 165] | 80% |
| CS(=O)(=O)c1cccc(-c2nnc(C(c3ccc(Cl)cc3)c3c(Cl)cc(-n4ncc(=O)[nH]c4=O)cc3Cl)o2)c1 (racemic) [Compound 205] | 80% |
| O=c1cnn(-c2cc(Cl)c(C(Sc3ccccn3)c3ccc(Cl)c(C(F)(F)F)c3)c(Cl)c2)c(=O)[nH]1 (stereo not shown) [Compound 378] | 91% |
| Cc1nc(-c2ccccc2Cl)c(C(c2ccc(Cl)cc2)c2c(Cl)cc(-n3ncc(=O)[nH]c3=O)cc2Cl)s1 (racemic) [Compound 135] | 88% |
| O=c1cnn(-c2cc(Cl)c(C(Sc3nc(-c4cccs4)cs3)c3ccc(Cl)c(C(F)(F)F)c3)c(Cl)c2)c(=O)[nH]1 (stereo not shown) [Compound 390] | 89% |
| O=c1cnn(-c2cc(Cl)c(C(c3ccc(Cl)cc3)c3nc(-c4ccccc4)c(COC4CCCCC4)s3)c(Cl)c2)c(=O)[nH]1 (racemic) [Comp 310] | 79% |
| COc1ccccc1-c1nnc(C(c2ccc(Cl)cc2)c2c(Cl)cc(-n3ncc(=O)[nH]c3=O)cc2Cl)o1 (racemic) [Compound 174] | 83% |
| Cn1c(C(c2ccc(Cl)cc2)c2c(Cl)cc(-n3ncc(=O)[nH]c3=O)cc2Cl)cnc1-c1ccccc1 (stereo not shown) [Comp 430] | 89% |
| CCOC(=O)Cc1sc(C(c2ccc(Cl)cc2)c2c(Cl)cc(-n3ncc(=O)[nH]c3=O)cc2Cl)nc1-c1ccccc1 (racemic) [Comp 256] | 94% |
| O=c1cnn(-c2ccc(C(NC3CCCCC3)c3ccc(Cl)cc3)c(Cl)c2)c(=O)[nH]1 (racemic) [Compound 46] | 64% |
| Cn1ccnc1C(O)(c1ccc(Cl)cc1)c1ccc(-n2ncc(=O)[nH]c2=O)cc1Cl.O (racemic) [Compound 120, (±)-2-[3-chloro[4-[(4-chlorophenyl)hydroxy(1-methyl-1H-imidazol-2-yl)methyl]phenyl]-1,2,4-triazine-3,5(2H,4H)-dione monohydrate] | 10% |
| O=c1cnn(-c2cc(Cl)c(C(Sc3nc4ccccc4o3)c3ccc(Cl)cc3)c(Cl)c2)c(=O)[nH]1 (stereo not shown) [Compound 383] | 78% |
| Cc1cc(-n2ncc(=O)[nH]c2=O)cc(C)c1C(c1ccc(Cl)c(Cl)c1)c1nc(-c2ccccc2)c(C)s1 (racemic) [Comp 271] | 88% |
| O=c1cnn(-c2cc(Cl)c(C(c3ccc(Cl)cc3)c3nnc(-c4cccc(F)c4)o3)c(Cl)c2)c(=O)[nH]1 (racemic) [Compound 160] | 91% |
| O=c1cnn(-c2cc(Cl)c(C(c3ccc(Cl)cc3)c3nc(-c4ccco4)cs3)c(Cl)c2)c(=O)[nH]1 (racemic) [Comp 236] | 92% |
| O=c1cnn(-c2ccc(C(Sc3nccs3)c3ccc(Cl)cc3)c(Cl)c2)c(=O)[nH]1 (racemic) [Compound 63] | 68% |
| O=c1cnn(-c2ccc(C(c3ccc(Cl)cc3)c3cnc(-c4ccccc4)s3)c(Cl)c2)c(=O)[nH]1 (racemic) [Compound 141] | 64% |
| O.O=c1cnn(-c2ccc(C(Sc3nccc(O)n3)c3ccc(Cl)cc3)c(Cl)c2)c(=O)[nH]1 (racemic) [Compound 61] | 14% |
| CN1CCC(NC(c2ccc(Cl)cc2)c2ccc(-n3ncc(=O)[nH]c3=O)cc2Cl)CC1 (racemic) [Compound 48, (±)-2-[3-chloro-4-[(4-chlorophenyl)[(1-methyl)-4-piperidinyl)amino]methyl]phenyl]-1,2,4-triazine-3,5(2H,4H)-dione] | 29% |
| O=c1cnn(-c2cc(Cl)c(C(Sc3nc4ccccc4[nH]3)c3ccc(Cl)c(C(F)(F)F)c3)c(Cl)c2)c(=O)[nH]1 (stereo not shown) [Compound 396] | 28% |

same assay, conditions: test dose 1×10^−6 M, 48 hours, read-out: % inh. (percentage inhibition of IL-5 production)

| Compound | inhibition at 1 µM |
| --- | --- |
| O=c1cnn(-c2ccc(C(c3ccc(Cl)cc3)c3nc4ccccc4s3)c(Cl)c2)c(=O)[nH]1 (racemic) [Compound 130, (±)-2-[4-[2-benzothiazolyl-(4-chlorophenyl)methyl]-3-chlorophenyl]-1,2,4-triazine-3,5(2H,4H)-dione] | 70% |
| O=c1cnn(-c2ccc(C(c3ccc(Cl)cc3)c3cccnc3)c(Cl)c2)c(=O)[nH]1 (racemic) [Compound 124, (±)-2-[3-chloro-4-[(4-chlorophenyl)-3-pyridinylmethyl]phenyl]-1,2,4-triazine-3,5(2H,4H)-dione] | 42% |
| O=c1cnn(-c2cc(Cl)c(C(c3ccc(Cl)cc3)c3nccs3)c(Cl)c2)c(=O)[nH]1 (racemic) [Compound 39, (±)-2-[3,5-dichloro-4-[(4-chlorophenyl)-2-thiazolylmethyl]-phenyl]-1,2,4-triazine-3,5(2H,4H)-dione] | 68% |
